Data on 12 compounds can be found in paper PMC10910856 (RSC Advances, 2024).

As usually defined, the IC50 is the concentration needed to halve the response being measured.

The first assay has as its system α-glucosidase. Description: Alpha-glucosidase inhibitory assay. The class given is biochemical, Bovine. To be noted: ratio of IC50 values.
With `CC1=NN(c2ccccc2)C(=O)C1=NNc1ccc(S(N)(=O)=O)cc1` [Compound 3a, 4-(2-(3-Methyl-5-oxo-1-phenyl-1,5-dihydro-4H-pyrazol-4-ylidene) hydrazinyl)benzenesulfonamide], the “times more active towards α-glucosidase enzyme than α-amylase enzyme” value worked out at 21 times.

The assay is the same for the next values; noted with them: read-out: α-Glucosidase IC50 (μM ± SD); mean of three replicates.
As to `CC1=NNC(=O)C1=NNc1ccc(S(N)(=O)=O)cc1` [Compound 4, 4-(2-(3-Methyl-5-oxo-1,5-dihydro-4H-pyrazol-4-ylidene)hydrazinyl)-benzenesulfonamide], the IC50 came to 76 ± 6.1 µM. As for `CC1=NN(c2ccc(C)cc2)C(=O)C1=NNc1ccc(S(N)(=O)=O)cc1` [Compound 3g, 4-(2-(3-Methyl-5-oxo-1-(p-tolyl)-1,5-dihydro-4H-pyrazol-4-ylidene)-hydrazinyl)benzenesulfonamide], the IC50 came out at 99.1 ± 6.8 µM.

`CC1=NN(c2cc(Cl)ccc2Cl)C(=O)C1=NNc1ccc(S(N)(=O)=O)cc1` [Compound 3i, 4-(2-(1-(2,5-Dichlorophenyl)-3-methyl-5-oxo-1,5-dihydro-4H-pyrazol-4-ylidene)hydrazinyl)benzenesulfonamide]: the IC50 came to 50.2 ± 4.8 µM. On the same count and under the same terms, the same measure for `CC1=NN(c2ccccc2)C(=O)C1=NNc1ccc(S(N)(=O)=O)cc1` [Compound 3a, 4-(2-(3-Methyl-5-oxo-1-phenyl-1,5-dihydro-4H-pyrazol-4-ylidene) hydrazinyl)benzenesulfonamide]: 19.4 ± 2.7 µM; for `CC1=NCCNC(=O)C1=NNc1ccc(S(N)(=O)=O)cc1` [Compound 8, 4-(2-(5-Methyl-7-oxo-1,2,3,7-tetrahydro-6H-1,4-diazepin-6-ylidene)hydrazinyl)benzenesulfonamide]: 110 ± 6.7 µM; for `CC1=NNC(=S)NC(=O)C1/N=N/c1ccc(S(N)(=O)=O)cc1` (stereo not shown) [Compound 7, (E)-4-((7-methyl-5-oxo-3-thioxo-3,4,5,6-tetrahydro-2H-1,2,4-triazepin-6-yl)diazenyl)benzenesulfonamide]: 85.4 ± 2.3 µM. Same read-out and setting: the same measure for `CC1=NN(c2cccc([N+](=O)[O-])c2)C(=O)C1=NNc1ccc(S(N)(=O)=O)cc1` [Compound 3h, 4-(2-(3-Methyl-1-(3-nitrophenyl)-5-oxo-1,5-dihydro-4H-pyrazol-4-ylidene)hydrazinyl)benzenesulfonamide]: 25.6 ± 2.1 µM; for `CC1=NN(c2ccccn2)C(=O)C1=NNc1ccc(S(N)(=O)=O)cc1` [Compound 3j, 4-(2-(3-Methyl-5-oxo-1-(pyridin-2-yl)-1,5-dihydro-4H-pyrazol-4-ylidene)hydrazinyl)benzenesulfonamide]: 82.7 ± 7.4 µM; for `CC1=NN(c2cccc(C)c2)C(=O)C1=NNc1ccc(S(N)(=O)=O)cc1` [Compound 3f, 4-(2-(3-Methyl-5-oxo-1-(m-tolyl)-1,5-dihydro-4H-pyrazol-4-ylidene)-hydrazinyl)benzenesulfonamide]: 55.4 ± 4.8 µM. The same measure, in the same setting: for `CC1=NN(c2ccc(Cl)cc2)C(=O)C1=NNc1ccc(S(N)(=O)=O)cc1` [Compound 3b, 4-(2-(1-(4-Chlorophenyl)-3-methyl-5-oxo-1,5-dihydro-4H-pyrazol-4-ylidene)hydrazinyl)benzenesulfonamide] the value was 25.1 ± 0.7 µM; for `CC1=NN(c2ccc(F)cc2)C(=O)C1=NNc1ccc(S(N)(=O)=O)cc1` [Compound 3e, 4-(2-(1-(4-Fluorophenyl)-3-methyl-5-oxo-1,5-dihydro-4H-pyrazol-4-ylidene)hydrazinyl)benzenesulfonamide], 44.8 ± 3.4 µM.

On to `CC1=NOC(=O)C1=NNc1ccc(S(N)(=O)=O)cc1` [Compound 5, 4-(2-(3-Methyl-5-oxoisoxazol-4(5H)-ylidene)hydrazinyl)benzene-sulfonamide], for which the IC50 amounted to 78.7 ± 5.9 µM.
